From US9969716B2, “Indole derivatives as modulators of methyl modifying enzymes, compositions and uses thereof” (Constellation Pharmaceuticals, Inc., priority 2013, dated 2018)
Read-outs that look alike come from different tables or passages of the source.

Key:
[1] = system: H3K27me3 mark in HeLa cells; assay: H3K27me3 Alpha Hela Assay (AlphaLISA); assay type: cell-based; conditions: Homo sapiens, 72 hrs, read-out: EZH2_Cell_H3K27me3_Alpha_HeLa (EC50_K27me3)
Experimental: Ten different doses of each test compound (in a series of 3-fold dilutions) were plated in duplicate 384-well tissue culture treated plates (Catalog #781080; Greiner Bio One; Monroe, N.C.). Hela cells grown in culture were trypsinized and counted using a Countess® cell counter (Catalog # C10281; Life Technologies, Grand Island, N.Y.). Cell were diluted to 67,000 cells per mL in 10% DMEM (Catalog #10569-010 Life Technologies, Grand Island, N.Y.) and 15 μL (1,000 cells) were plated into each well using the Biotek MicroFlo™ Select Dispenser (BioTek Instruments, Inc. Vermont, USA),) of the 384-well plate. Plates were incubated at 37° C./5% CO2 for 72 hrs. One of the duplicate plates was processed for HeLa assay and the other for viability.
To the plate processed for AlphaLISA was added 5 μL per well Cell-Histone Lysis buffer (1λ) (Catalog # AL009F1 Perkin Elmer; Waltham, Mass.) and the plate was incubated at RT for 30 minutes on a plate shaker with low speed (Model#4625-Q Thermo Scientific; Waltham, Mass.). Then, 10 μL per well Histone Extraction buffer (catalog # AL009F2; Perkin Elmer; Waltham, Mass.) was added and the plate further incubated at RT for 20 min on plate shaker with low speed. To each well was then added 10 μL per well of a 5× mix of anti-K27me3 acceptor beads plus Biotinylated anti-Histone H3 (C-ter) Antibody (diluted to 3 nM final) (Catalog #AL118 Perkin Elmer; Waltham, Mass.). Dilution of the acceptor beads and then anti-Histone H3 was with 1× Histone Detection buffer (Catalog # AL009F3 Perkin Elmer; Waltham, Mass.) which was produced diluted from the 10× stock provided. The plate was sealed with an aluminum plate sealer and incubated at 23° C. for 60 min. We then added 10 μL 5× solution of Streptavidin Donor beads (Catalog #6760002 Perkin Elmer; Waltham, Mass.) (20 μg/mL final in 1× Histone Detection Buffer), sealed the plate with Aluminum plate sealer and incubated at 23° C. for 30 min. The plates were then read using an EnVision-Alpha Reader (model #2104 Perkin Elmer; Waltham, Mass.).
Data from both assays was analyzed using Assay Assistant (Constellation Pharmaceuticals In-house product) and Activity Base (IDBS Ltd, Surrey, UK) template. Data files were imported to Assay Assistant and assay conditions were specified. A unique Analysis ID was created and the data files exported to Activity Base. An analysis template was created on Activity Base to measure dose-dependent inhibition of H3K27me3 mark and cell viability respectively. Readout of DMSO wells were used to normalize the data. Resulting curves were fitted using Activity base software Model 205 (IDBS Ltd, Surrey, UK). The data was checked for quality, validated and integrated in excel format using SARview (IDBS Ltd, Surrey, UK).

EZH2 = EZH2 (Homo sapiens, UniProt Q15910); assay: EZH2 assay (rPRC2, 3H SAM methyl transfer to biotinylated oligonucleosomes, FlashPlate); assay type: biochemical
Experimental: (§1) EZH2 Assay: Assays were carried out by mixing rPRC2 together with biotinylated oligonucleosome substrates in the presence of the radio-labeled enzyme co-factor, S-adenosyl-L-methionine (^3H SAM) (Perkin Elmer) and monitoring the enzymatically mediated transfer of tritiated methyl groups from ^3H SAM to histone lysine residues. The amount of resulting tritiated methyl histone product was measured by first capturing the biotinylated oligonucleosomes in streptavidin (SAV) coated FlashPlates (Perkin Elmer), followed by a wash step to remove un-reacted ^3H SAM, and then counting on a TopCount NXT 384 well plate scintillation counter (Perkin Elmer). The final assay conditions for EZH2 were as follows: 50 mM Tris Buffer pH 8.5, 1 mM DTT, 69 μM Brij-35 detergent, 5.0 mM MgCl2, 0.1 mg/mL BSA, 0.2 μM ^3H SAM, 0.2 μM biotinylated oligonucleosomes, 3.6 μM H3K27me3 peptide and 2 nM EZH2.
(§2) A 12.5 μL volume of the HMT enzyme, H3K27me3 peptide and oligonucleosome substrate in assay buffer was added to each well of the assay plate using a Multidrop Combi (ThermoFisher). Compounds were pre-incubated with the enzyme for 20 min, followed by initiation of the methyltransferase reaction by addition of 12.5 μL of ^3H SAM in assay buffer (final volume=25 μL). The final concentrations of compounds ranged from a top default concentration of 80 μM down to 0.16 μM in ten 2-fold dilution steps. Reactions were carried out for 60 minutes and quenched with 20 μL per well of 1.96 mM SAH, 50 mM Tris pH 8.5, 200 mM EDTA. Stopped reactions were transferred to SAV coated Flashplates (Perkin Elmer), incubated for 120 min, washed with a plate washer, and then read on the TopCount NXT (1.0 min/well) to measure the amount of methyl histone product formed during the reaction.

Y641N EZH2 = Y641N EZH2 (Homo sapiens, UniProt Q15910, Y641N); assay: Y641N EZH2 assay (as EZH2 assay, H3K27Me2 oligonucleosomes as substrate); assay type: biochemical
Experimental: as §1, §2

[2] = 2 nM EZH2, 0.2 μM 3H SAM, 0.2 μM biotinylated oligonucleosomes, 3.6 μM H3K27me3 peptide, 60 min, read-out: EZH2_nuc_BSA_Brij_1.5 (IC50)
[3] = Y641N EZH2, reconstituted H3K27Me2 oligonucleosomes as substrate, read-out: EZH2_Y641N_nuc_BSA_Brij_6.0 (IC50)

EZH2, sequence (Q15910 whole entry): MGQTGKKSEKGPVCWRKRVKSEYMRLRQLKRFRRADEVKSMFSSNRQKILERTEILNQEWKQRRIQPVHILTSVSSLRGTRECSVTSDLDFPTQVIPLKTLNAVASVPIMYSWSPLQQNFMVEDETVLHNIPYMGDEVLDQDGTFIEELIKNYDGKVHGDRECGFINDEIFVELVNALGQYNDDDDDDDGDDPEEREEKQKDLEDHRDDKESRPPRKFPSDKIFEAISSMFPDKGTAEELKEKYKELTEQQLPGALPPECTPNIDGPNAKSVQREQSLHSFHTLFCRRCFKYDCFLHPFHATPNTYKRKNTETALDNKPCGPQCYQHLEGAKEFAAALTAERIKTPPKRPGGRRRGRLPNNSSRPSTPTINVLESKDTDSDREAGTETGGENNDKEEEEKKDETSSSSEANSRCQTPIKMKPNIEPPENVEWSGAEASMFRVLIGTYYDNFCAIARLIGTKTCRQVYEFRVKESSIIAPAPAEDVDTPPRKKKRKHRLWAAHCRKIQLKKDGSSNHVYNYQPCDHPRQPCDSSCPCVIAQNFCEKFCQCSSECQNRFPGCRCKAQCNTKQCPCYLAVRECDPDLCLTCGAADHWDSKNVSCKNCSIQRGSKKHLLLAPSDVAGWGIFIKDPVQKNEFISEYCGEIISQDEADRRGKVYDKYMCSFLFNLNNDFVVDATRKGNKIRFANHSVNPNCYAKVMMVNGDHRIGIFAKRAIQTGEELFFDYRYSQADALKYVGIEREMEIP
EZH2, sequence (O75530 whole entry partner): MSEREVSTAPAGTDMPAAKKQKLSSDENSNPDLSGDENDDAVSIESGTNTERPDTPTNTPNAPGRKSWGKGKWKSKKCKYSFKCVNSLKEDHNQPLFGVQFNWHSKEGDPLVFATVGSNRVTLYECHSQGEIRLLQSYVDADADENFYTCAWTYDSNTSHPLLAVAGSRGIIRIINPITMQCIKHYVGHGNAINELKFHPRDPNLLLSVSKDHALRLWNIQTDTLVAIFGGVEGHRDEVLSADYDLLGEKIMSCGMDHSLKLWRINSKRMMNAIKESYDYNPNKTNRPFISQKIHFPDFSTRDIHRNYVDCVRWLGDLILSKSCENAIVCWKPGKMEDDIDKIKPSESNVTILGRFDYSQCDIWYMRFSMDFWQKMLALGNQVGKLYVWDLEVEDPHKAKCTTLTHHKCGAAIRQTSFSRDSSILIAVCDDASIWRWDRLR
EZH2, sequence (Q15022 whole entry partner): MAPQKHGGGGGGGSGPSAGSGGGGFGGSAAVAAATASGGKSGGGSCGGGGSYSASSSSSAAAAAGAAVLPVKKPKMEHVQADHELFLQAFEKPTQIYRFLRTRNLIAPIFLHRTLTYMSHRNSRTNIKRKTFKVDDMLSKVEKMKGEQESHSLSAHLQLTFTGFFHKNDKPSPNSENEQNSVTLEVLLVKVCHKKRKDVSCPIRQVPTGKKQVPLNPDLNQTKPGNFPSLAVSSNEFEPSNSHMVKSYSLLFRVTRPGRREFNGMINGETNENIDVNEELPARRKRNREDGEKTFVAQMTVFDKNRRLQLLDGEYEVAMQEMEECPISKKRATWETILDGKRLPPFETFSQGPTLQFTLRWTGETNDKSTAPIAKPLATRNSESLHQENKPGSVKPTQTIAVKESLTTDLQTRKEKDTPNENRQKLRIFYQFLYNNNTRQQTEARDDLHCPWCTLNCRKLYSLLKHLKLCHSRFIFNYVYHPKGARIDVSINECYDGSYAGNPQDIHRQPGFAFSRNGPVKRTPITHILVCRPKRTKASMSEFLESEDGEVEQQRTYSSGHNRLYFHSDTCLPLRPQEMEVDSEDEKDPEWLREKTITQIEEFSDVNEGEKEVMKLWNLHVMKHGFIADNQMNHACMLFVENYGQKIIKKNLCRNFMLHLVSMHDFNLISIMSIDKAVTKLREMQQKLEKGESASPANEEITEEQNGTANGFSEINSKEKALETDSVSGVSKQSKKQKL
Y641N EZH2, sequence (Q15910 whole entry Y641N): as the sequence (Q15910 whole entry) above, with Y641N counted along it
Y641N EZH2, sequence (O75530 whole entry partner): as the sequence (O75530 whole entry partner) above
Y641N EZH2, sequence (Q15022 whole entry partner): as the sequence (Q15022 whole entry partner) above

SMILES	EC50 [1] [nM]	IC50 (EZH2) [nM]	IC50 (Y641N EZH2) [nM]	IC50 (EZH2; [2]) [nM]	IC50 (Y641N EZH2; [3]) [nM]
COc1cc(C)[nH]c(=O)c1CNC(=O)c1c(C)n([C@H](C)C2CCN(CC(C)(F)F)CC2)c2ccccc12 [Compound 101, (R)-1-(1-(1-(2,2-difluoropropyl)piperidin-4-yl)ethyl)-N-((4-methoxy-6-methyl-2-oxo-1,2-dihydropyridin-3-yl)methyl)-2-methyl-1H-indole-3-carboxamide]	< 400	< 100	< 100	–	–
COc1cc(C)[nH]c(=O)c1CNC(=O)c1c(C)n([C@H](C)C2CCN(CC3(C(F)(F)F)CC3)CC2)c2ccccc12 [Compound 102]	< 400	< 100	< 100	–	–
COc1cc(C)[nH]c(=O)c1CNC(=O)c1c(C)n([C@H](C)C2CCN(CC(F)(F)C(F)F)CC2)c2ccccc12 [Compound 103]	< 400	< 100	< 100	–	–
COc1cc(C)[nH]c(=O)c1CNC(=O)c1c(C)n([C@H](C)C2CCN(C(=O)C3(C(F)(F)F)CCC3)CC2)c2ccccc12 [Compound 104]	< 400	< 100	< 100	–	–
Cc1cc(Cl)c(CNC(=O)c2c(C)n([C@H](C)C3CCN(CC(C)(F)F)CC3)c3ccccc23)c(=O)[nH]1 [Compound 105]	< 400	< 100	< 100	–	–
Cc1cc(Cl)c(CNC(=O)c2c(C)n([C@H](C)C3CCN(CC(F)F)CC3)c3ccccc23)c(=O)[nH]1 [Compound 106]	< 400	< 100	< 100	–	–
CCS(=O)(=O)N1CCC([C@@H](C)n2c(C)c(C(=O)NCc3c(Cl)cc(C)[nH]c3=O)c3ccccc32)CC1 [Compound 107]	< 400	< 100	< 100	–	–
COc1cc(C)[nH]c(=O)c1CNC(=O)c1c(C)n([C@H](C)C2CCN(Cc3cc(F)cc(F)c3)CC2)c2ccccc12 [Compound 109, (R)-1-(1-(1-(3,5-difluorobenzyl)piperidin-4-yl)ethyl)-N-((4-methoxy-6-methyl-2-oxo-1,2-dihydropyridin-3-yl)methyl)-2-methyl-1H-indole-3-carboxamide]	< 400	< 100	< 100	–	–
Cc1cc(OC(F)F)c(CNC(=O)c2c(C)n([C@H](C)C3CCN(CC(F)F)CC3)c3ccccc23)c(=O)[nH]1 [Compound 110]	< 400	< 100	< 100	–	–
Cc1cc(OC(F)F)c(CNC(=O)c2c(C)n([C@H](C)C3CCN(CC(C)(F)F)CC3)c3ccccc23)c(=O)[nH]1 [Compound 111]	< 400	< 100	< 100	–	–
Cc1cc(Cl)c(CNC(=O)c2c(C)n([C@H](C)C3CCN(C4COC4)CC3)c3ccccc23)c(=O)[nH]1 [Compound 112]	< 400	< 100	< 100	–	–
COc1cc(C)[nH]c(=O)c1CNC(=O)c1c(C)n([C@H](C)C2CCN(CC(F)(F)C(F)(F)F)CC2)c2ccccc12 [Compound 113]	< 400	< 100	< 100	–	–
COc1cc(C)[nH]c(=O)c1CNC(=O)c1c(C)n([C@H](C)C2CCN(C(=O)C3(C(F)(F)F)CC3)CC2)c2ccccc12 [Compound 115]	< 400	< 100	< 100	–	–
COc1cc(C)[nH]c(=O)c1CNC(=O)c1c(C)n([C@H](C)C2CCN(CC(C)(C)F)CC2)c2ccccc12 [Compound 116]	< 400	< 100	< 100	–	–
COc1cc(C)[nH]c(=O)c1CNC(=O)c1c(C)n([C@H](C)C2CCN(S(=O)(=O)C3CC3)CC2)c2ccccc12 [Compound 117, (R)-1-(1-(1-(cyclopropylsulfonyl)piperidin-4-yl)ethyl)-N-((4-methoxy-6-methyl-2-oxo-1,2-dihydropyridin-3-yl)methyl)-2-methyl-1H-indole-3-carboxamide]	< 400	< 100	< 100	–	–
COc1cc(C)[nH]c(=O)c1CNC(=O)c1c(C)n([C@H](C)C2CCN(CC3(F)CCC3)CC2)c2ccccc12 [Compound 118]	< 400	< 100	< 100	–	–
COc1cc(C)[nH]c(=O)c1CNC(=O)c1c(C)n([C@H](C)C2CCN(CC3(F)CC3)CC2)c2ccccc12 [Compound 119]	< 400	< 100	< 100	–	–
COc1cc(C)[nH]c(=O)c1CNC(=O)c1c(C)n([C@H](C)C2CCN(c3ncc(F)cn3)CC2)c2ccccc12 [Compound 120]	< 400	< 100	< 100	–	–
COc1cc(C)[nH]c(=O)c1CNC(=O)c1c(C)n([C@H](C)C2CCN(C[C@H](OC)C(F)(F)F)CC2)c2ccccc12 [Compound 121]	< 400	< 100	< 100	–	–
COc1cc(C)[nH]c(=O)c1CNC(=O)c1c(C)n([C@H](C)C2CCN(Cc3ccc(F)cc3)CC2)c2ccccc12 [Compound 122]	< 400	< 100	< 100	–	–
CCS(=O)(=O)N1CCC([C@@H](C)n2c(C)c(C(=O)NCc3c(NC)cc(C)[nH]c3=O)c3ccccc32)CC1 [Compound 123]	< 400	< 100	< 100	–	–
COc1cc(C)[nH]c(=O)c1CNC(=O)c1c(C)n([C@H](C)C2CCN(c3ncc(Br)cn3)CC2)c2ccccc12 [Compound 124, (R)-1-(1-(1-(5-bromopyrimidin-2-yl)piperidin-4-yl)ethyl)-N-((4-methoxy-6-methyl-2-oxo-1,2-dihydropyridin-3-yl)methyl)-2-methyl-1H-indole-3-carboxamide]	< 400	< 100	< 100	–	–
COc1cc(C)[nH]c(=O)c1CNC(=O)c1c(C)n([C@H](C)C2CCN(c3cccnc3)CC2)c2ccccc12 [Compound 125]	< 400	< 100	< 100	–	–
Cc1cc(Cl)c(CNC(=O)c2c(C)n([C@H](C)C3CCN(CCF)CC3)c3ccccc23)c(=O)[nH]1 [Compound 126]	< 400	< 100	< 100	–	–
COc1cc(C)[nH]c(=O)c1CNC(=O)c1c(C)n([C@H](C)C2CCN(C(=O)C(C)(C)C)CC2)c2ccccc12 [Compound 129]	< 400	< 100	< 100	–	–
Cc1cc(C)c(CNC(=O)c2c(C)n([C@H](C)C3CCN(S(=O)(=O)C4CNC4)CC3)c3ccccc23)c(=O)[nH]1 [Compound 171]	–	–	–	< 100	< 100
Cc1cc(C)c(CNC(=O)c2c(C)n([C@H](C)C3CCN(S(=O)(=O)C4CCNCC4)CC3)c3ccccc23)c(=O)[nH]1 [Compound 172]	–	–	–	< 100	< 100
